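Growth conditions: 96-well plates. Treatment: test compound, 48 hours, 5 concentrations. Analysis: linear interpolation between bracketing concentrations; unreached endpoints set to highest concentration. TGI: concentration producing complete growth inhibition.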
Tests used:
Assay in all cases: NCI anticancer screen, dose series, 48 h
[1] = system: UACC-257 melanoma
[2] = system: SK-MEL-5 melanoma
[3] = system: MDA-MB-435
[4] = system: OVCAR-4 ovarian
[5] = system: MALME-3M melanoma
[6] = system: M14 melanoma
[7] = system: A549 NSCLC
[8] = system: CAKI-1 renal
[9] = system: 786-0 renal
[10] = system: MCF7 breast
[11] = system: NCI-H226 lung
[12] = system: NCI-H522 lung
[13] = system: LOX IMVI melanoma
[14] = system: IGROV1 ovarian
[15] = system: NCI/ADR-RES ovarian
[16] = system: UO-31 renal
[17] = system: SF-295 CNS
[18] = system: COLO 205 colon
[19] = system: T-47D breast

SMILES | TGI [1] [µM] | TGI [2] [µM] | TGI [3] [µM] | TGI [4] [µM] | TGI [5] [µM] | TGI [6] [µM] | TGI [7] [µM] | TGI [8] [µM] | TGI [9] [µM] | TGI [10] [µM] | TGI [11] [µM] | TGI [12] [µM] | TGI [13] [µM] | TGI [14] [µM] | TGI [15] [µM] | TGI [16] [µM] | TGI [17] [µM] | TGI [18] [µM] | TGI [19] [µM]
Cc1c2n(c3ccccc13)S(=O)(=O)c1ccccc1-2 | > 100 | > 100 | > 100 | > 100 | > 100 | > 100 | > 100 | 27.4 | 22.7 | > 100 | > 100 | > 100 | > 100 | > 100 | > 100 | 41.6 | 53.2 | > 100 | –
Cc1ccc(S(=O)(=O)N2CCCSCCSCCCN(S(=O)(=O)c3ccc(C)cc3)CC2)cc1 | > 100 | > 100 | > 100 | > 100 | – | > 100 | > 100 | – | > 100 | > 100 | > 100 | – | – | > 100 | > 100 | > 100 | > 100 | > 100 | > 100
C/C(=N\NC(=O)C[N+](C)(C)C)c1sc(-c2cccnc2)nc1C | > 100 | > 100 | – | – | > 100 | > 100 | > 100 | – | > 100 | – | > 100 | > 100 | > 100 | > 100 | – | > 100 | > 100 | > 100 | –
CCOC(=O)/C(=C\NC(C)(C)C)c1nc2ccccc2[nH]1 | 35.2 | 25.5 | 38.6 | 59.6 | 39.4 | 39.7 | > 100 | 96.2 | 72 | 43.5 | 47 | 45.9 | 44.6 | 69.4 | 92.1 | 41.3 | 41.2 | 33.7 | –
O=C(/C=C/c1ccc(OCc2ccccc2)cc1)NCc1ccc(C(=O)NCCc2c[nH]c3ccccc23)cc1 | > 100 | > 58.6 | > 100 | > 48.4 | 43.3 | > 62 | 87.6 | 45.4 | 16.7 | > 100 | > 58.8 | – | > 100 | 56.1 | > 100 | > 100 | 17.2 | > 100 | > 100
COc1cc2oc(=O)cc(C)c2c(OC)c1O | > 100 | > 100 | > 100 | > 100 | > 100 | > 100 | > 100 | – | > 100 | > 100 | > 100 | – | > 100 | > 100 | > 100 | > 100 | > 100 | > 100 | –
N#Cc1ccc(/C=C(/C(=O)c2ccccc2)c2ccccc2)cc1 | 29.6 | 26.8 | – | 26.9 | 29.1 | 27.8 | 44.2 | 32.1 | 15.5 | – | 31.5 | 29.2 | 10.6 | > 57.4 | – | 28.9 | 35.2 | 37.3 | –
COc1ccc2c3c([nH]c(=O)c2c1C(=O)O)-c1ccccc1CC3 | – | > 100 | – | > 100 | > 100 | > 100 | > 100 | > 100 | > 100 | – | > 100 | > 100 | > 100 | > 100 | – | > 100 | > 100 | > 100 | –
CC(C)(C)C1CCC2c3c([nH]c4ncccc34)C3C(=O)N(c4ccccc4)C(=O)C3C2C1 (stereo not drawn) | > 100 | > 100 | – | > 100 | > 100 | > 100 | > 100 | > 100 | > 100 | – | > 100 | > 100 | > 100 | > 100 | – | > 100 | > 100 | > 100 | –
C[C@@H]1[C@H](O)CC2=C(CC[C@@H](O)C2(C)C)[C@@]1(CO)CCc1ccoc1 | > 50 | > 50 | – | > 50 | > 50 | > 50 | > 50 | > 50 | > 50 | > 50 | > 50 | – | > 50 | > 50 | > 50 | > 50 | > 50 | > 50 | –
COc1ccc(C2C(C#N)=C(S)N(C3OC(COC(C)=O)C(OC(C)=O)C(OC(C)=O)C3OC(C)=O)C(C)=C2C(C)=O)cc1 (stereo not drawn) | > 100 | > 100 | > 100 | > 100 | > 100 | > 100 | > 100 | > 100 | > 100 | > 100 | – | – | > 100 | > 100 | > 100 | > 100 | > 100 | > 100 | 83.1
CCOC(=O)C(C)Sc1nnc(COc2ccc(Cl)cc2)n1-c1ccccc1 (stereo not drawn) | 47.3 | 35.8 | – | 42.6 | 63.6 | 30.9 | > 100 | 31.7 | 71.2 | – | 46.9 | 5.16 | 27.4 | 50.3 | – | 28 | 85.4 | 33.2 | –
CCO/S(=N/S(=O)(=O)c1ccccc1)c1ccccc1[N+](=O)[O-] (stereo not drawn) | > 100 | > 100 | – | > 100 | > 100 | > 100 | > 100 | > 100 | > 100 | – | > 100 | > 100 | > 100 | > 100 | – | > 100 | > 100 | > 100 | –
O=C1c2c(ccc3c2CCC3)CC1Cc1ccc2c(c1)CCC2 (stereo not drawn) | 61.9 | 27.9 | 92.4 | 85.4 | > 100 | > 100 | > 100 | – | 99.1 | 96.6 | > 100 | – | > 100 | > 100 | > 100 | > 100 | 94.3 | 51.4 | 27
C=C(Cl)/C(=C\Cl)CCC(Cl)C(C)C (stereo not drawn) | > 100 | > 100 | > 100 | > 100 | > 100 | > 100 | > 100 | > 100 | > 100 | > 100 | > 100 | > 100 | > 100 | > 100 | > 100 | > 100 | > 100 | > 100 | –
COCCOC(=O)NCn1cc(-c2ccccc2)nn1 | > 100 | > 100 | > 100 | > 100 | > 100 | > 100 | > 100 | > 100 | > 100 | > 100 | > 100 | > 100 | > 100 | > 100 | > 100 | – | > 100 | > 100 | –
O=c1[nH]c2cc([N+](=O)[O-])ccc2nc1/C(=N/Nc1ccccc1)C(O)c1ccco1 (stereo not drawn) | > 100 | > 100 | – | > 100 | > 100 | > 100 | > 100 | > 100 | > 100 | – | 76.1 | > 100 | > 100 | > 100 | – | > 100 | > 100 | > 100 | –
c1cc(-c2ccc(-c3nc4ccc(C5=NCCN5)cc4s3)s2)ccc1C1=NCCN1 | > 100 | – | – | 0.5 | 1.4 | – | – | 4.71 | 0.272 | 0.255 | – | – | – | 2.52 | > 100 | 2.61 | 0.249 | – | 1.42
CN(C)C1(N(C)C)Oc2c(c(=O)n(C)c(=O)n2C)C(c2ccc(C(F)(F)F)cc2)C1(F)F (stereo not drawn) | > 100 | > 100 | > 100 | > 100 | – | > 100 | > 100 | > 100 | > 100 | > 100 | > 100 | – | > 100 | – | > 100 | > 100 | > 100 | > 100 | > 100
N#C/C(c1nc2ccccc2[nH]1)=c1\s/c(=C(/N)O)c(=N)n1-c1ccccc1 | > 100 | > 100 | – | > 100 | > 100 | > 100 | > 100 | > 100 | > 100 | – | > 100 | > 100 | > 100 | > 100 | – | > 100 | > 100 | > 100 | –
O/N=C(/C(Cl)=C(Cl)Cl)C(Cl)Cl | 40.6 | 40.3 | 33.1 | 30.3 | 77.9 | 40.8 | > 100 | 87.3 | 34 | 60.7 | > 100 | – | 37.3 | 44.6 | 73 | 49 | 35.8 | 44.2 | –
COc1cc2c(oc(=O)c3c4occc4cc(OC)c23)c2cccc(OCc3ccccc3)c12 | > 100 | > 100 | – | > 100 | > 100 | > 100 | > 100 | > 100 | > 100 | – | > 100 | > 100 | > 100 | > 100 | – | > 100 | > 100 | > 100 | –
Cc1ccc(S(=O)(=O)N/N=C(\c2nc3ccc([N+](=O)[O-])cc3[nH]c2=O)C(O)c2ccc([N+](=O)[O-])cc2)cc1 (stereo not drawn) | > 100 | > 100 | – | > 100 | > 100 | > 100 | > 100 | > 100 | > 100 | – | – | > 100 | > 100 | > 100 | – | > 100 | > 100 | > 100 | –
CC(C)(C)c1cc2c(c(C(C)(C)C)c1O)CC(=O)O2 | 75.7 | 32.2 | 66 | > 100 | – | 62.5 | > 100 | – | 94.1 | > 100 | 74.7 | > 100 | > 100 | 89.3 | 54.7 | 66.6 | 85.7 | 37.6 | 64.7
Cc1ccc(/C=C/C(=N/NC(=O)N/N=C(/C=C/c2ccc(C)cc2)C(C)C)C(C)C)cc1 | > 10 | – | > 10 | 2.88 | > 10 | > 10 | > 10 | > 10 | > 10 | > 10 | > 10 | > 10 | – | – | > 10 | > 10 | > 10 | > 10 | –
O=C(c1ccco1)N(C(=S)N1CCN(c2ccccc2)CC1)C1CCCCC1 | > 100 | > 100 | – | > 100 | > 100 | > 100 | > 100 | > 100 | > 100 | – | – | > 100 | > 100 | > 100 | – | > 100 | > 100 | > 100 | –
O=C(O)[C@@H]1OCCOCCO[C@@H](C(=O)O)[C@H](C(=O)O)OCCOCCO[C@H]1C(=O)O | > 100 | > 100 | – | > 100 | > 100 | > 100 | > 100 | > 100 | > 100 | – | > 100 | > 100 | > 100 | > 100 | – | > 100 | > 100 | > 100 | –
c1ccc2c(c1)nc1n2CSCC1 | > 100 | > 100 | > 100 | > 100 | – | > 100 | > 100 | > 100 | > 100 | > 100 | > 100 | – | > 100 | > 100 | > 100 | > 100 | > 100 | > 100 | > 100

Source: PubChem BioAssay (NCI)
